# Results from US20070160527A1, “Use of n-acetyl-d-aminoglycosamine in treatment of local lesions or systematic symptoms related to autoimmune reactions” (priority 2003, published 2007).
# How the values were obtained:
# B16 tumor cells [1] = experiment: Cytological test of regulating micro-heterology variation; assay type: cell-based; conditions: final concentration 1 g/100 ml, incomplete 1640 medium, continued culture more than 48 hours; control cells could not proliferate
# Procedure: Conventional incomplete 1640 culture media were used for cell culture, and B16 tumor cells (commericially obtained from the tumor cell library of Shanghai Institute of Cytobiology) were inoculated on said media. After continue culture for more than 48 hours, the micro-heterology variation of cells and the control effects of N-acetyl-D-glucosamine thereon were observed under a condition where metabolic wastes affected the growth environment. […] The control cells cultured without N-acetyl-D-glucosamine could not proliferate on the same culture media under same conditions.
# B16 tumor cells [2] = experiment: Animal test of regulating micro-heterology variation (B16 tumor cells inoculated on hind legs); assay type: in vivo, rats; conditions: 7 days, 3 times per day; for control of micro-heterology variation compared with the control group: rats inoculated with B16 tumor cells, intra-peritoneal, 1 ml
# Description: In control group without the administration of the compound of formula (1), many proliferative corpuscles appeared in at least 40 among 50 rats within 1-3 days after the tumor cells were inoculated; many immature cells appeared within 3-5 days; and visible solid tumors finally appeared within about 10 days.
# Proteus Mirabilis = experiment: Promoting wave test (bio-wave model); assay type: cell-based; conditions: final concentration 0.5% in LB plate, 37° C., 9 hours, compared with control sample
# Description: • 1. […] (+). […] Experimental results and evaluation:
# [3] = in vivo
# Description: The toxicological test of the compound of formula (I) includes: • 1. Acute toxicity test: including tests of oral administration, intravenous injection administration, and maximum limit amount for administration; • 2. Ames test; • 3. Micronucleus test of mouse bone marrow cell; • 4. Abnormality test of mouse sperm; • 5. Aberration test of mouse testis chromosome; • 6. Chronic lethal test; • 7. Sub-chronic toxicity (feed for 90 days) test; • 8. Traditional deformity-inducing test.
# [4] = Treatment of a patient with systemic lupus erythematosus; assay type: in vivo, human; conditions: one patient, capsules 100 mg, 3 times per day, 7 days
# Procedure: Patient who had definite systemic lupus erythematosus, was administered with capsules of the compound of formula (1) for consecutive 7 days, 3 times per day, and 100 mg every time, during the period of hospitalization.
# [5] = Treatment of a patient with hyperthyroidism; assay type: in vivo, human; conditions: one patient, capsules 100 mg, 3 times per day, 7 days
# Procedure: Patient was administered with capsules of the compound of formula (1) for consecutive 7 days, 3 times per day, and 100 mg every time, during the period of treating diarrhea.
SMILES,cell proliferation under a condition where metabolic wastes affected the growth environment (B16 tumor cells [1]),control of micro-heterology variation compared with the control group (B16 tumor cells [2]),bio-wave pattern of bacterial growth (promoting wave function) (Proteus Mirabilis),dosage at which the acute toxicosis reaction had not appeared [3],"number of rats in which solid tumor did not appear (B16 tumor cells [2]; 50 rats, 5% aqueous solution intra-peritoneally, 1 ml every time)",patient's symptom [4],therapeutical effect on hyperthyroidism (confirmed by T3 and T4 in serum) [5]
CC(=O)N[C@H]1C(O)O[C@H](CO)[C@@H](O)[C@@H]1O.Cl (stereo partly drawn) [N-acetyl-D-glucosamine hydrochloride],cells could proliferate continuously,exhibited function of controlling micro-heterology variation,–,–,–,–,–
"CC(=O)N[C@@H]1[C@@H](O)[C@H](O)[C@@H](CO)O[C@H]1O [compound of formula (I), N-acetyl-D-glucosamine]",cell number stably increased with the culture time,could control the micro-heterology variation,finer wave mode,more than 2 g/kg,45,remitted in some extent,better effect of treating hyperthyroidism
